Source: publication PMC6979384, “Characterization of the plant homeodomain (PHD) reader family for their histone tail interactions” (Epigenetics & Chromatin, 2020)
Where no end group is shown, it is not given here.

Columns and labels:
Test in all cases: Histone peptide microarray
Format in all cases: binding, human
RAG2 = settings: arrays performed twice; for Array Heatmap value (peptide array binding signal): RAG2, GST-tagged, n of 4
How it was run: (§1)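 Using an optimized microarray protocol, purified GST-tagged PHD fingers were incubated at 0.5 μM on 293 histone peptides with single or multiple modifications, and array signal was recorded as the average of 4 replicates.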

CHD4 (PPCC) = settings: arrays performed twice; for Array Heatmap value (peptide array binding signal): CHD4 (PPCC), GST-tagged, n of 4
How it was run: as §1

PHF21A = settings: arrays performed twice; for Array Heatmap value (peptide array binding signal): PHF21A, GST-tagged, n of 4
How it was run: as §1

ING3 = settings: arrays performed twice; for Array Heatmap value (peptide array binding signal): ING3, GST-tagged, n of 4
How it was run: as §1

DPF2 (PPC2W2) = settings: arrays performed twice; for Array Heatmap value (peptide array binding signal): DPF2 (PPC2W2), GST-tagged, n of 4
How it was run: as §1

KDM7A = settings: arrays performed twice; for Array Heatmap value (peptide array binding signal): KDM7A, GST-tagged, n of 4
How it was run: as §1

MLL5 = settings: arrays performed twice; for Array Heatmap value (peptide array binding signal): MLL5, GST-tagged, n of 4
How it was run: as §1

PHF2 = settings: arrays performed twice; for Array Heatmap value (peptide array binding signal): PHF2, GST-tagged, n of 4
How it was run: as §1

MORC3 (CW) = settings: arrays performed twice; for Array Heatmap value (peptide array binding signal): MORC3 (CW), GST-tagged, n of 4
How it was run: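 Purified PHD finger domains fused to GST are screened against 293 synthetic histone peptides bearing one or several post-translational modifications. The protein is used at 0.5 μM, and the signal from four replicate arrays is averaged, with standard deviation given.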

ING2 = settings: arrays performed twice; for Array Heatmap value (peptide array binding signal): ING2, GST-tagged, n of 4
How it was run: as §1

TAF3 = settings: arrays performed twice; for Array Heatmap value (peptide array binding signal): TAF3, GST-tagged, n of 4
How it was run: as §1

PHF8 = settings: arrays performed twice; for Array Heatmap value (peptide array binding signal): PHF8, GST-tagged, n of 4
How it was run: as §1

DIDO1 = settings: arrays performed twice; for Array Heatmap value (peptide array binding signal): DIDO1, GST-tagged, n of 4
How it was run: as §1

ING5 = settings: arrays performed twice; for Array Heatmap value (peptide array binding signal): ING5, GST-tagged, n of 4
How it was run: as §1

BAZ2B = settings: arrays performed twice; for Array Heatmap value (peptide array binding signal): BAZ2B, GST-tagged, n of 4
How it was run: as §1

KDM5B (1) = settings: arrays performed twice; for Array Heatmap value (peptide array binding signal): KDM5B (1), GST-tagged, n of 4
How it was run: as §1

AIRE (PP) = settings: arrays performed twice; for Array Heatmap value (peptide array binding signal): AIRE (PP), GST-tagged, n of 4
How it was run: as §1

ING4 = settings: arrays performed twice; for Array Heatmap value (peptide array binding signal): ING4, GST-tagged, n of 4
How it was run: as §1

PHRF1 (RP) = settings: arrays performed twice; for Array Heatmap value (peptide array binding signal): PHRF1 (RP), GST-tagged, n of 4
How it was run: as §1

KDM5A (3) = settings: arrays performed twice; for Array Heatmap value (peptide array binding signal): KDM5A (3), GST-tagged, n of 4
How it was run: as §1

CHD5 (PCC) = settings: arrays performed twice; for Array Heatmap value (peptide array binding signal): CHD5 (PCC), GST-tagged, n of 4
How it was run: as §1

ING1 = settings: arrays performed twice; for Array Heatmap value (peptide array binding signal): ING1, GST-tagged, n of 4
How it was run: as §1

KDM4C (TTP) = settings: arrays performed twice; for Array Heatmap value (peptide array binding signal): KDM4C (TTP), GST-tagged, n of 4
How it was run: as §1

KDM5B (3) = settings: arrays performed twice; for Array Heatmap value (peptide array binding signal): KDM5B (3), GST-tagged, n of 4
How it was run: as §1

TRIM66 (PB) = settings: arrays performed twice; for Array Heatmap value (peptide array binding signal): TRIM66 (PB), GST-tagged, n of 4
How it was run: as §1

SP140L = settings: arrays performed twice; for Array Heatmap value (peptide array binding signal): SP140L, GST-tagged, n of 4
How it was run: as §1

KDM5A (1) = settings: arrays performed twice; for Array Heatmap value (peptide array binding signal): KDM5A (1), GST-tagged, n of 4
How it was run: as §1

PHF23 = settings: arrays performed twice; for Array Heatmap value (peptide array binding signal): PHF23, GST-tagged, n of 4
How it was run: as §1

PHF13 = settings: arrays performed twice; for Array Heatmap value (peptide array binding signal): PHF13, GST-tagged, n of 4
How it was run: as §1

BPTF (PB) = settings: arrays performed twice; for Array Heatmap value (peptide array binding signal): BPTF (PB), GST-tagged, n of 4
How it was run: as §1

CHD5 (PPCC) = settings: arrays performed twice; for Array Heatmap value (peptide array binding signal): CHD5 (PPCC), GST-tagged, n of 4
How it was run: as §1

## H3K36me2 (21-44): H3 21-44
RAG2
  Array Heatmap value (peptide array binding signal): 0.2578
CHD4 (PPCC)
  Array Heatmap value (peptide array binding signal): 0.5705
PHF21A
  Array Heatmap value (peptide array binding signal): 0.4543
ING3
  Array Heatmap value (peptide array binding signal): 0.4835
DPF2 (PPC2W2)
  Array Heatmap value (peptide array binding signal): 0.6298
KDM7A
  Array Heatmap value (peptide array binding signal): 0.3485
MLL5
  Array Heatmap value (peptide array binding signal): 0.5622
PHF2
  Array Heatmap value (peptide array binding signal): 0.5405
MORC3 (CW)
  Array Heatmap value (peptide array binding signal): 0.3825
ING2
  Array Heatmap value (peptide array binding signal): 0.637
TAF3
  Array Heatmap value (peptide array binding signal): 0.2772
PHF8
  Array Heatmap value (peptide array binding signal): 0.3633
DIDO1
  Array Heatmap value (peptide array binding signal): 0.6879
ING5
  Array Heatmap value (peptide array binding signal): 0.3689
BAZ2B
  Array Heatmap value (peptide array binding signal): 0.4646
KDM5B (1)
  Array Heatmap value (peptide array binding signal): 0.6467
AIRE (PP)
  Array Heatmap value (peptide array binding signal): 0.4141
ING4
  Array Heatmap value (peptide array binding signal): 0.4701
PHRF1 (RP)
  Array Heatmap value (peptide array binding signal): 0.4299
KDM5A (3)
  Array Heatmap value (peptide array binding signal): 0.4688
CHD5 (PCC)
  Array Heatmap value (peptide array binding signal): 0.7486
ING1
  Array Heatmap value (peptide array binding signal): 0.5436
KDM4C (TTP)
  Array Heatmap value (peptide array binding signal): 0.482
KDM5B (3)
  Array Heatmap value (peptide array binding signal): 0.4626
TRIM66 (PB)
  Array Heatmap value (peptide array binding signal): 0.5817
SP140L
  Array Heatmap value (peptide array binding signal): 0.3575
KDM5A (1)
  Array Heatmap value (peptide array binding signal): 0.4698
PHF23
  Array Heatmap value (peptide array binding signal): 0.5508
PHF13
  Array Heatmap value (peptide array binding signal): 0.6322
BPTF (PB)
  Array Heatmap value (peptide array binding signal): 0.3564
CHD5 (PPCC)
  Array Heatmap value (peptide array binding signal): 0.5556

## H3K36me3 (21-44): H3 21-44
RAG2
  Array Heatmap value (peptide array binding signal): 0.2418
CHD4 (PPCC)
  Array Heatmap value (peptide array binding signal): 0.5871
PHF21A
  Array Heatmap value (peptide array binding signal): 0.4681
ING3
  Array Heatmap value (peptide array binding signal): 0.4991
DPF2 (PPC2W2)
  Array Heatmap value (peptide array binding signal): 0.6719
KDM7A
  Array Heatmap value (peptide array binding signal): 0.3622
MLL5
  Array Heatmap value (peptide array binding signal): 0.5803
PHF2
  Array Heatmap value (peptide array binding signal): 0.5258
MORC3 (CW)
  Array Heatmap value (peptide array binding signal): 0.351
ING2
  Array Heatmap value (peptide array binding signal): 0.6072
TAF3
  Array Heatmap value (peptide array binding signal): 0.2673
PHF8
  Array Heatmap value (peptide array binding signal): 0.3546
DIDO1
  Array Heatmap value (peptide array binding signal): 0.7273
ING5
  Array Heatmap value (peptide array binding signal): 0.3678
BAZ2B
  Array Heatmap value (peptide array binding signal): 0.4726
KDM5B (1)
  Array Heatmap value (peptide array binding signal): 0.6524
AIRE (PP)
  Array Heatmap value (peptide array binding signal): 0.4385
ING4
  Array Heatmap value (peptide array binding signal): 0.4583
PHRF1 (RP)
  Array Heatmap value (peptide array binding signal): 0.4375
KDM5A (3)
  Array Heatmap value (peptide array binding signal): 0.4295
CHD5 (PCC)
  Array Heatmap value (peptide array binding signal): 0.7751
ING1
  Array Heatmap value (peptide array binding signal): 0.5613
KDM4C (TTP)
  Array Heatmap value (peptide array binding signal): 0.4879
KDM5B (3)
  Array Heatmap value (peptide array binding signal): 0.4778
TRIM66 (PB)
  Array Heatmap value (peptide array binding signal): 0.6062
SP140L
  Array Heatmap value (peptide array binding signal): 0.3526
KDM5A (1)
  Array Heatmap value (peptide array binding signal): 0.4698
PHF23
  Array Heatmap value (peptide array binding signal): 0.5628
PHF13
  Array Heatmap value (peptide array binding signal): 0.6462
BPTF (PB)
  Array Heatmap value (peptide array binding signal): 0.352
CHD5 (PPCC)
  Array Heatmap value (peptide array binding signal): 0.5621

## H3K56ac (52-61): H3 52-61 (RRYQK(Ac)STELL; UniProt P68431 53-62, looked up, fragment)
RAG2; sheet "Array Heatmap", GST-tagged RAG2, total replicate number n = 4
  Array Heatmap signal, RAG2: 0.2388
CHD4 (PPCC); sheet "Array Heatmap", GST-tagged CHD4 (PPCC), total replicate number n = 4
  Array Heatmap signal, CHD4 (PPCC): 0.5636
PHF21A; sheet "Array Heatmap", GST-tagged PHF21A, total replicate number n = 4
  Array Heatmap signal, PHF21A: 0.4604
ING3; sheet "Array Heatmap", GST-tagged ING3, total replicate number n = 4
  Array Heatmap signal, ING3: 0.475
DPF2 (PPC2W2); sheet "Array Heatmap", GST-tagged DPF2 (PPC2W2), total replicate number n = 4
  Array Heatmap signal, DPF2 (PPC2W2): 0.7093
KDM7A; sheet "Array Heatmap", GST-tagged KDM7A, total replicate number n = 4
  Array Heatmap signal, KDM7A: 0.3406
MLL5; sheet "Array Heatmap", GST-tagged MLL5, total replicate number n = 4
  Array Heatmap signal, MLL5: 0.5378
PHF2; sheet "Array Heatmap", GST-tagged PHF2, total replicate number n = 4
  Array Heatmap signal, PHF2: 0.5355
MORC3 (CW); sheet "Array Heatmap", GST-tagged MORC3 (CW), total replicate number n = 4
  Array Heatmap signal, MORC3 (CW): 0.3491
ING2; sheet "Array Heatmap", GST-tagged ING2, total replicate number n = 4
  Array Heatmap signal, ING2: 0.6013
TAF3; sheet "Array Heatmap", GST-tagged TAF3, total replicate number n = 4
  Array Heatmap signal, TAF3: 0.2638
PHF8; sheet "Array Heatmap", GST-tagged PHF8, total replicate number n = 4
  Array Heatmap signal, PHF8: 0.3512
DIDO1; sheet "Array Heatmap", GST-tagged DIDO1, total replicate number n = 4
  Array Heatmap signal, DIDO1: 0.7019
ING5; sheet "Array Heatmap", GST-tagged ING5, total replicate number n = 4
  Array Heatmap signal, ING5: 0.365
BAZ2B; sheet "Array Heatmap", GST-tagged BAZ2B, total replicate number n = 4
  Array Heatmap signal, BAZ2B: 0.4578
KDM5B (1); sheet "Array Heatmap", GST-tagged KDM5B (1), total replicate number n = 4
  Array Heatmap signal, KDM5B (1): 0.5943
AIRE (PP); sheet "Array Heatmap", GST-tagged AIRE (PP), total replicate number n = 4
  Array Heatmap signal, AIRE (PP): 0.4476
ING4; sheet "Array Heatmap", GST-tagged ING4, total replicate number n = 4
  Array Heatmap signal, ING4: 0.4689
PHRF1 (RP); sheet "Array Heatmap", GST-tagged PHRF1 (RP), total replicate number n = 4
  Array Heatmap signal, PHRF1 (RP): 0.4575
KDM5A (3); sheet "Array Heatmap", GST-tagged KDM5A (3), total replicate number n = 4
  Array Heatmap signal, KDM5A (3): 0.4545
CHD5 (PCC); sheet "Array Heatmap", GST-tagged CHD5 (PCC), total replicate number n = 4
  Array Heatmap signal, CHD5 (PCC): 0.7293
ING1; sheet "Array Heatmap", GST-tagged ING1, total replicate number n = 4
  Array Heatmap signal, ING1: 0.5577
KDM4C (TTP); sheet "Array Heatmap", GST-tagged KDM4C (TTP), total replicate number n = 4
  Array Heatmap signal, KDM4C (TTP): 0.4844
KDM5B (3); sheet "Array Heatmap", GST-tagged KDM5B (3), total replicate number n = 4
  Array Heatmap signal, KDM5B (3): 0.4628
TRIM66 (PB); sheet "Array Heatmap", GST-tagged TRIM66 (PB), total replicate number n = 4
  Array Heatmap signal, TRIM66 (PB): 0.5346
SP140L; sheet "Array Heatmap", GST-tagged SP140L, total replicate number n = 4
  Array Heatmap signal, SP140L: 0.3649
KDM5A (1); sheet "Array Heatmap", GST-tagged KDM5A (1), total replicate number n = 4
  Array Heatmap signal, KDM5A (1): 0.4791
PHF23; sheet "Array Heatmap", GST-tagged PHF23, total replicate number n = 4
  Array Heatmap signal, PHF23: 0.5106
PHF13; sheet "Array Heatmap", GST-tagged PHF13, total replicate number n = 4
  Array Heatmap signal, PHF13: 0.6129
BPTF (PB); sheet "Array Heatmap", GST-tagged BPTF (PB), total replicate number n = 4
  Array Heatmap signal, BPTF (PB): 0.3515
CHD5 (PPCC); sheet "Array Heatmap", GST-tagged CHD5 (PPCC), total replicate number n = 4
  Array Heatmap signal, CHD5 (PPCC): 0.5505
